Test results published in patent US20230365576A1, “BRM Targeting Compounds And Associated Methods Of Use” (Prelude Therapeutics Incorporated, priority 2022, published 2023).

Experiments:
SMARCA2 = target: T1, SMARCA2 (Homo sapiens, UniProt P51531); experiment: SMARCA2 HiBiT degradation assay in HeLa cells; format: cell-based; settings: 18 hours; for DC50: read-out: SMARCA2 IC50; for Dmax: HeLa
T1 construct: SMARCA2-HiBiT knock-in Hela monoclonal cell (CS302366); host or cells: HeLa (CRISPR HiBiT knock-in monoclonal line, heterozygous)
T1 sequence (P51531 whole entry): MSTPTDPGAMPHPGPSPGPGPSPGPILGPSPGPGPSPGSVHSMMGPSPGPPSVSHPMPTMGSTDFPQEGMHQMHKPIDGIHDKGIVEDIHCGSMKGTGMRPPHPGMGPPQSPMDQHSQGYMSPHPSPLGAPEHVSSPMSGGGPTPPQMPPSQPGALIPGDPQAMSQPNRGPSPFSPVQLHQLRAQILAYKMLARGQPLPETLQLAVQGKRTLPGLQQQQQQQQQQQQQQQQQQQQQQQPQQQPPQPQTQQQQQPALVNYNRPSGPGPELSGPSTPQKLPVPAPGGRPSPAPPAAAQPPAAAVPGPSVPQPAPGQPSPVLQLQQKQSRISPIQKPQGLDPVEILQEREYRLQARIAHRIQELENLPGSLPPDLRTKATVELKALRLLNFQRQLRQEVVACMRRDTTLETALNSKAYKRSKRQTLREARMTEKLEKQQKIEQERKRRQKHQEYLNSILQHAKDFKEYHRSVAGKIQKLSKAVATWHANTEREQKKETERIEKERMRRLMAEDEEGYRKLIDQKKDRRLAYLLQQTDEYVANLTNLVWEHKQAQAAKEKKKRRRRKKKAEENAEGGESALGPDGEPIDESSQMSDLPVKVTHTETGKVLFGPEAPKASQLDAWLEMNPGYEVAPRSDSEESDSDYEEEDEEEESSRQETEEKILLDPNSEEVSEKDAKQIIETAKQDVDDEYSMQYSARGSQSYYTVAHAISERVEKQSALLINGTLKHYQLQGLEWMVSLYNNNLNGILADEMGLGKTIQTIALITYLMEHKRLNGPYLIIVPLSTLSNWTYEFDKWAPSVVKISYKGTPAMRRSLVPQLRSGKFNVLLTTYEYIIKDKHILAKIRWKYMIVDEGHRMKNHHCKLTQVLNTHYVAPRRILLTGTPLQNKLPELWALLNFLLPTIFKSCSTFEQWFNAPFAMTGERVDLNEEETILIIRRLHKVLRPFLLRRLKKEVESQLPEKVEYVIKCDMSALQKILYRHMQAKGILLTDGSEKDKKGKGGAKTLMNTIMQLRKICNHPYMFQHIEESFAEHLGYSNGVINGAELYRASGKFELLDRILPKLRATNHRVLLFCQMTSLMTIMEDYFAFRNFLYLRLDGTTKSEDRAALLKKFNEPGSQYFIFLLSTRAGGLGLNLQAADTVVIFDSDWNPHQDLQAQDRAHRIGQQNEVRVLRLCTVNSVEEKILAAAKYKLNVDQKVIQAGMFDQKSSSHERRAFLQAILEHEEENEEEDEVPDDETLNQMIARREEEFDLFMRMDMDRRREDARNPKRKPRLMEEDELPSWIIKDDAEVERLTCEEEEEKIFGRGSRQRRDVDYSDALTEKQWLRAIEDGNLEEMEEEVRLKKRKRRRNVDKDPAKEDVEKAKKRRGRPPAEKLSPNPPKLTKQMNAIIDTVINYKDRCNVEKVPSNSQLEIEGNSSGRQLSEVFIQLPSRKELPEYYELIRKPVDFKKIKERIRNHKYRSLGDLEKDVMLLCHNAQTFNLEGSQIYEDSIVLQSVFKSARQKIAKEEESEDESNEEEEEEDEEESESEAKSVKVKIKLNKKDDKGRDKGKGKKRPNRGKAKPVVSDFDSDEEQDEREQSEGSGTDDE
Method in brief: (§1)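 Degradation measured as HiBiT luminescence (Nano-Glo lytic reagent) after 18 h compound exposure at 37° C. Cells were HeLa clones carrying heterozygous HiBiT tags on SMARCA2 or SMARCA4, 2500 per well; compounds at 3-fold serial dilution from 10 μM.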

SMARCA4 = target: T2, SMARCA4 (Homo sapiens, UniProt P51532); experiment: SMARCA4 HiBiT degradation assay in HeLa cells; format: cell-based; settings: 18 hours; for Dmax: HeLa
T2 construct: SMARCA4-HiBiT knock-in Hela monoclonal cell (CS3023226) were purchased from Promega; host or cells: HeLa (CRISPR HiBiT knock-in monoclonal line, heterozygous)
T2 sequence (P51532 whole entry): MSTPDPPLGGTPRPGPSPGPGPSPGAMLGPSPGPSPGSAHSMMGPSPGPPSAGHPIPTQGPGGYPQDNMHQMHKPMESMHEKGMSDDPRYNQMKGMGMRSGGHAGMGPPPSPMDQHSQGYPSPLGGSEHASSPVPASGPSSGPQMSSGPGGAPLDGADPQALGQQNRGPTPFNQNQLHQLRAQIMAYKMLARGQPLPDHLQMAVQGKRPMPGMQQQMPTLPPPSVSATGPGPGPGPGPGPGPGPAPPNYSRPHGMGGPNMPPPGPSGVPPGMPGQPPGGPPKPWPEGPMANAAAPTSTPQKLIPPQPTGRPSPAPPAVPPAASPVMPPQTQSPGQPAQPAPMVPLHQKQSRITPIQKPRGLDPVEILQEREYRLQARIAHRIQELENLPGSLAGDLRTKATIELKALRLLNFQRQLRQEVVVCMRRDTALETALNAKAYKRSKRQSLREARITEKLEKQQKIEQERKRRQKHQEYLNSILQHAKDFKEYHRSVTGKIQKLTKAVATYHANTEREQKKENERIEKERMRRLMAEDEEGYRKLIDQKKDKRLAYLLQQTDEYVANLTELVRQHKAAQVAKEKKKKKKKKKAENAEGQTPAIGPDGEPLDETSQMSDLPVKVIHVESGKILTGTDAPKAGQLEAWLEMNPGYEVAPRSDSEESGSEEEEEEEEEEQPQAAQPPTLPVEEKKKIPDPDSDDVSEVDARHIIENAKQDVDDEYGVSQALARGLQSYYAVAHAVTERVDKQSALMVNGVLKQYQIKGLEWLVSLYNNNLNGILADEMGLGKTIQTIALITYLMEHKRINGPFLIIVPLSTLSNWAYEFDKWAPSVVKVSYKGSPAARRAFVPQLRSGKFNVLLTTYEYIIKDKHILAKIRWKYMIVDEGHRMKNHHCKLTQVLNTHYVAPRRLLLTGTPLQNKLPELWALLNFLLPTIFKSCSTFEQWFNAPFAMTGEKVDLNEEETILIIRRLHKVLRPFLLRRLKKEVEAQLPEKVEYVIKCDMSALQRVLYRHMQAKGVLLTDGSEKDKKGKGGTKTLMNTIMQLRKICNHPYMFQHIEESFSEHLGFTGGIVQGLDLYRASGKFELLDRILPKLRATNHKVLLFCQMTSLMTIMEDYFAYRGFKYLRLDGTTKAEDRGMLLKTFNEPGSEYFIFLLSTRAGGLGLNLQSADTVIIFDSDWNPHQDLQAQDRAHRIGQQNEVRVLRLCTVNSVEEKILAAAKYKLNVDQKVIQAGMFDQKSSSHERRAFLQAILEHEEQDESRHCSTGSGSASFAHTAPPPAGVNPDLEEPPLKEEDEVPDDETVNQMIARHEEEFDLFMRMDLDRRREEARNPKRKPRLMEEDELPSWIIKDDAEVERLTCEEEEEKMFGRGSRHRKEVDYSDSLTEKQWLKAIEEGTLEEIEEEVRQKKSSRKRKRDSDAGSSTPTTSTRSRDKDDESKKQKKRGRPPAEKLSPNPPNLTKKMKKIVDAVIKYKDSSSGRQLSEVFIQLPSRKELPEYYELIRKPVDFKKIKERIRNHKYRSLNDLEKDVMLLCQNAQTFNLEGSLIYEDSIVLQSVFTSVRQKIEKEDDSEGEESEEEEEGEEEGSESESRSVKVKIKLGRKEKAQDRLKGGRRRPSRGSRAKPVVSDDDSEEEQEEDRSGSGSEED
Method in brief: as §1

Row | DC50 (SMARCA2) [nM] | Dmax (SMARCA2) [%] | DC50 (SMARCA4) [nM] | Dmax (SMARCA4) [%] | Compound
1 | < 100 | 50 to 75 | < 100 | 50 to 75 | C[C@@H]1CN(CC2CCN(c3ccc4c(c3)C(=O)N([C@H]3CCC(=O)NC3=O)C4)CC2)C[C@@H](C)N1C(=O)N1CCN2c3cc(-c4cccc(F)c4O)nnc3NC[C@]2(C(F)F)C1 [Example 67, (S)-3-(6-(4-(((3R,5R)-4-((R)-6a-(difluoromethyl)-2-(3-fluoro-2-hydroxyphenyl)-6,6a,7,8,9,10-hexahydro-5H-pyrazino[1′,2′:4,5]pyrazino[2,3-c]pyridazine-8-carbonyl)-3,5-dimethylpiperazin-1-yl)methyl)piperidin-1-yl)-1-oxoisoindolin-2-yl)piperidine-2,6-dione]
2 | < 100 | > 75 | < 100 | 50 to 75 | C[C@@H]1CN(CC2CCN(c3ccc4c(c3)C(=O)N([C@H]3CCC(=O)NC3=O)C4)CC2)[C@@H](C)CN1C(=O)N1CCN2c3cc(-c4cccc(F)c4O)nnc3NC[C@]2(C(F)F)C1 [Example 68, (S)-3-(6-(4-(((2S,5R)-4-((R)-6a-(difluoromethyl)-2-(3-fluoro-2-hydroxyphenyl)-6,6a,7,8,9,10-hexahydro-5H-pyrazino[1′,2′:4,5]pyrazino[2,3-c]pyridazine-8-carbonyl)-2,5-dimethylpiperazin-1-yl)methyl)piperidin-1-yl)-1-oxoisoindolin-2-yl)piperidine-2,6-dione]
3 | < 100 | > 75 | > 1000 | < 50 | C[C@@H]1CN(CC2CCN(c3ccc4c(c3)C(=O)N(C3CCC(=O)NC3=O)C4)CC2)C[C@H](C)N1C(=O)N1CCN2c3cc(-c4cccc(F)c4O)nnc3NC[C@@]2(C(F)F)C1 (stereo partly drawn) [Example 69, 3-(6-(4-(((3R,5S)-4-((S)-6a-(difluoromethyl)-2-(3-fluoro-2-hydroxyphenyl)-6,6a,7,8,9,10-hexahydro-5H-pyrazino[1′,2′:4,5]pyrazino[2,3-c]pyridazine-8-carbonyl)-3,5-dimethylpiperazin-1-yl)methyl)piperidin-1-yl)-1-oxoisoindolin-2-yl)piperidine-2,6-dione]
4 | < 100 | > 75 | < 100 | 50 to 75 | C[C@@H]1CN(CC2CCN(c3ccc4c(c3)C(=O)N(C3CCC(=O)NC3=O)C4)CC2)C[C@H](C)N1C(=O)N1CCN2c3cc(-c4cccc(F)c4O)nnc3NC[C@]2(C(F)F)C1 (stereo partly drawn) [Example 70, 3-(6-(4-(((3R,5S)-4-((R)-6a-(difluoromethyl)-2-(3-fluoro-2-hydroxyphenyl)-6,6a,7,8,9,10-hexahydro-5H-pyrazino[1′,2′:4,5]pyrazino[2,3-c]pyridazine-8-carbonyl)-3,5-dimethylpiperazin-1-yl)methyl)piperidin-1-yl)-1-oxoisoindolin-2-yl)piperidine-2,6-dione]
5 | < 100 | > 75 | 100 to 1000 | < 50 | C[C@@H]1C[C@H](CN2CCN(c3ccc4c(c3)C(=O)N([C@H]3CCC(=O)NC3=O)C4)CC2)C[C@H](C)N1C(=O)N1CCN2c3cc(-c4cccc(F)c4O)nnc3NC[C@@]2(C(F)F)C1 [Example 71, (S)-3-(6-(4-(((2R,4S,6S)-1-((S)-6a-(difluoromethyl)-2-(3-fluoro-2-hydroxyphenyl)-6,6a,7,8,9,10-hexahydro-5H-pyrazino[1′,2′:4,5]pyrazino[2,3-c]pyridazine-8-carbonyl)-2,6-dimethylpiperidin-4-yl)methyl)piperazin-1-yl)-1-oxoisoindolin-2-yl)piperidine-2,6-dione]
6 | < 100 | > 75 | < 100 | > 75 | C[C@@H]1C[C@H](CN2CCN(c3ccc4c(c3)C(=O)N([C@H]3CCC(=O)NC3=O)C4)CC2)C[C@H](C)N1C(=O)N1CCN2c3cc(-c4cccc(F)c4O)nnc3NC[C@]2(C(F)F)C1 [Example 72, (S)-3-(6-(4-(((2R,4R,6S)-1-((R)-6a-(difluoromethyl)-2-(3-fluoro-2-hydroxyphenyl)-6,6a,7,8,9,10-hexahydro-5H-pyrazino[1′,2′:4,5]pyrazino[2,3-c]pyridazine-8-carbonyl)-2,6-dimethylpiperidin-4-yl)methyl)piperazin-1-yl)-1-oxoisoindolin-2-yl)piperidine-2,6-dione]
7 | < 100 | > 75 | 100 to 1000 | < 50 | CC1(C)CC(CN2CCN(c3ccc4c(c3)C(=O)N([C@H]3CCC(=O)NC3=O)C4)CC2)CCN1C(=O)N1CCN2c3cc(-c4cccc(F)c4O)nnc3NC[C@@]2(C(F)F)C1 (stereo partly drawn) [Example 73, (3S)-3-(6-(4-((1-((S)-6a-(difluoromethyl)-2-(3-fluoro-2-hydroxyphenyl)-6,6a,7,8,9,10-hexahydro-5H-pyrazino[1′,2′:4,5]pyrazino[2,3-c]pyridazine-8-carbonyl)-2,2-dimethylpiperidin-4-yl)methyl)piperazin-1-yl)-1-oxoisoindolin-2-yl)piperidine-2,6-dione]
8 | < 100 | > 75 | 100 to 1000 | < 50 | O=C1CCC(N2Cc3ccc(N4CCN(C[C@H]5CC[C@H](C(=O)N6CCN7c8cc(-c9cccc(F)c9O)nnc8NC[C@H]7C6)CC5)CC4)cc3C2=O)C(=O)N1 (stereo partly drawn) [Example 104, 3-(6-(4-(((1S,4r)-4-((S)-2-(3-fluoro-2-hydroxyphenyl)-6,6a,7,8,9,10-hexahydro-5H-pyrazino[1′,2′:4,5]pyrazino[2,3-c]pyridazine-8-carbonyl)cyclohexyl)methyl)piperazin-1-yl)-1-oxoisoindolin-2-yl)piperidine-2,6-dione]
9 | < 100 | > 75 | < 100 | 50 to 75 | O=C1CC[C@H](N2Cc3ccc(N4CCC(CN5CCC(F)(C(=O)N6CCN7c8cc(-c9cc(F)cc(F)c9O)nnc8NC[C@]7(C(F)F)C6)CC5)CC4)cc3C2=O)C(=O)N1 [Example 105, (S)-3-(6-(4-((4-((R)-2-(3,5-difluoro-2-hydroxyphenyl)-6a-(difluoromethyl)-6,6a,7,8,9,10-hexahydro-5H-pyrazino[1′,2′:4,5]pyrazino[2,3-c]pyridazine-8-carbonyl)-4-fluoropiperidin-1-yl)methyl)piperidin-1-yl)-1-oxoisoindolin-2-yl)piperidine-2,6-dione]
10 | < 100 | > 75 | < 100 | 50 to 75 | O=C1CC[C@H](N2Cc3ccc(N4CCN(C[C@H]5CC[C@H](CN6CCN7c8cc(-c9cccc(F)c9O)nnc8NC[C@H]7C6)CC5)CC4)cc3C2=O)C(=O)N1 [Example 114, (S)-3-(6-(4-(((1S,4S)-4-(((S)-2-(3-fluoro-2-hydroxyphenyl)-5,6,6a,7,9,10-hexahydro-8H-pyrazino[1′,2′:4,5]pyrazino[2,3-c]pyridazin-8-yl)methyl)cyclohexyl)methyl)piperazin-1-yl)-1-oxoisoindolin-2-yl)piperidine-2,6-dione]
11 | < 100 | > 75 | 100 to 1000 | < 50 | CC1(C)CN(CC2CCN(c3ccc4c(c3)C(=O)N(C3CCC(=O)NC3=O)C4)CC2)CCC1C(=O)N1CCN2c3cc(-c4cc(F)cc(F)c4O)nnc3NC[C@H]2C1 (stereo partly drawn) [Example 119, 3-(6-(4-((4-((S)-2-(3,5-difluoro-2-hydroxyphenyl)-6,6a,7,8,9,10-hexahydro-5H-pyrazino[1′,2′:4,5]pyrazino[2,3-c]pyridazine-8-carbonyl)-3,3-dimethylpiperidin-1-yl)methyl)piperidin-1-yl)-1-oxoisoindolin-2-yl)piperidine-2,6-dione]
12 | < 100 | > 75 | < 100 | 50 to 75 | CC1(C)CC(CN2CCN(c3ccc4c(c3)C(=O)N(C3CCC(=O)NC3=O)C4)CC2)CCN1C(=O)N1CCN2c3cc(-c4cccc(F)c4O)nnc3NC[C@H]2C1 (stereo partly drawn) [Example 122, 3-(6-(4-((1-((S)-2-(3-fluoro-2-hydroxyphenyl)-6,6a,7,8,9,10-hexahydro-5H-pyrazino[1′,2′:4,5]pyrazino[2,3-c]pyridazine-8-carbonyl)-2,2-dimethylpiperidin-4-yl)methyl)piperazin-1-yl)-1-oxoisoindolin-2-yl)piperidine-2,6-dione]
